Measured values published in the supplement of paper PMC11061612.

Experiments:
[1] = tested on: MES-SA (Other Solid Carcinomas); experiment: Bliss excess, mean over the matrix (fraction); higher = more synergy
Outline: (§1)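 Cell lines in DMEM/F12 or RPMI with 10% FBS were plated in 1536-well plates, held 24 hours at 37°C, 5% CO2, then given two-drug dose matrices for 72 hours (DMSO typically 0.2%). Viability was read by CellTiter-Glo 2.0 luminescence and scaled as inhibition from 0 (vehicle wells) to 1 (blank wells). Combination Emax is the second-highest inhibition in the matrix; Bliss excess is observed combination effect minus expected EA + EB − EA·EB, EA and EB being single-agent effects.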

EW-22 (Ewing's Sarcoma) = experiment: as above
Outline: as §1

[2] = tested on: YT (Other Blood Carcinomas); experiment: as above
Outline: as §1

[3] = tested on: EKVX (Non-Small Cell Lung Carcinoma); experiment: as above
Outline: as §1

[4] = tested on: D-283MED (Other Solid Carcinomas); experiment: as above
Outline: as §1

MCF7 (Breast Carcinoma) = experiment: as above
Outline: as §1

[5] = tested on: SK-UT-1 (Other Solid Carcinomas); experiment: as above
Outline: as §1

[6] = tested on: NOMO-1 (Acute Myeloid Leukemia); experiment: as above
Outline: as §1

[7] = tested on: HCT-116 (Colorectal Carcinoma); experiment: as above
Outline: as §1

[8] = tested on: EFM-192A (Breast Carcinoma); experiment: as above
Outline: as §1

H4 (Low Grade Glioma) = experiment: as above
Outline: as §1

[9] = tested on: SW948 (Colorectal Carcinoma); experiment: as above
Outline: as §1

[10] = tested on: TC-YIK (Other Solid Carcinomas); experiment: as above
Outline: as §1

[11] = tested on: FU-OV-1 (Ovarian Carcinoma); experiment: as above
Outline: as §1

[12] = tested on: TC-YIK (Other Solid Carcinomas); experiment: combination Emax (second highest fraction inhibited in the dose matrix, 72 h); higher = more inhibition; extreme values may be limits of the assay
Outline: as §1

[13] = tested on: FU-OV-1 (Ovarian Carcinoma); experiment: as above
Outline: as §1
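Wherever Bliss excess, mean over the matrix is given: after 72 h of two-drug dosing.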

Compound	Bliss excess [1]	Bliss excess (EW-22 (Ewing's Sarcoma))	Bliss excess [2]	Bliss excess [3]	Bliss excess [4]	Bliss excess (MCF7 (Breast Carcinoma))	Bliss excess [5]	Bliss excess [6]	Bliss excess [7]	Bliss excess [8]	Bliss excess (H4 (Low Grade Glioma))	Bliss excess [9]	Bliss excess [10]	Bliss excess [11]	combination Emax [12]	combination Emax [13]
CN(C)CCCOc1ccc(-c2ccc3ncc4c(c3c2)n(C2CCOCC2)c(=O)n4C)cn1 [AZD0156] + C=CCn1c(=O)c2cnc(Nc3ccc(N4CCN(C)CC4)cc3)nc2n1-c1cccc(C(C)(C)O)n1 [AZD1775] (first compound max 1 µM, partner max 1 µM)	0.0372	0.006	-0.0273	-0.0358	-0.0408	-0.0338	-0.0346	0.004	-0.0016	-0.0567	-0.0516	–	–	–	–	–
CN(C)CCCOc1ccc(-c2ccc3ncc4c(c3c2)n(C2CCOCC2)c(=O)n4C)cn1 [AZD0156] + CCN(CCO)CCCOc1ccc2c(Nc3cc(CC(=O)Nc4cccc(F)c4)[nH]n3)ncnc2c1 [AZD2811] (first compound max 1 µM, 7x7, partner max 1 µM)	0.0836	0.005	0.0041	-0.0473	0.02	-0.0114	0.0253	0.0759	0.0233	-0.0243	-0.0077	–	–	–	–	–
CN(C)CCCOc1ccc(-c2ccc3ncc4c(c3c2)n(C2CCOCC2)c(=O)n4C)cn1 [AZD0156] + C[C@@H]1COCCN1C2=NC(=NC(=C2)C3(CC3)[S@](=N)(=O)C)C4=C5C=CNC5=NC=C4 [AZD6738] (first compound max 1 µM, 7x7, partner max 10 µM)	0.0509	0.0143	0.0104	-0.0388	0.0357	0.0578	0.0126	0.0095	-0.0047	0.0073	-0.0404	–	–	–	–	–
C=CCn1c(=O)c2cnc(Nc3ccc(N4CCN(C)CC4)cc3)nc2n1-c1cccc(C(C)(C)O)n1 [AZD1775] + C[C@@H]1COCCN1C2=NC(=NC(=C2)C3(CC3)[S@](=N)(=O)C)C4=C5C=CNC5=NC=C4 [AZD6738] (first compound max 1 µM, partner max 10 µM)	0.01	-0.0218	0.0305	-0.0087	0.0327	0.0332	0.0498	0.0261	0.0252	-0.0053	-0.0949	–	–	–	–	–
CN(CCO)CC[C@H](CSc1ccccc1)Nc1ccc(S(=O)(=O)NC(=O)c2ccc(N3CCC([C@@H](O)c4ccccc4-c4ccc(Cl)cc4)CC3)cc2)cc1S(=O)(=O)C(F)(F)F [AZD4320] + CCN(CCO)CCCOc1ccc2c(Nc3cc(CC(=O)Nc4cccc(F)c4)[nH]n3)ncnc2c1 [AZD2811] (first compound max 1 µM, 7x7, partner max 1 µM)	0.0657	0.0467	-0.0344	-0.0476	0.0522	0.0189	0.0705	0.208	0.108	–	0.0036	-0.0196	–	–	–	–
NC1(C(=O)N[C@@H](CCO)c2ccc(Cl)cc2)CCN(c2ncnc3[nH]ccc23)CC1 [Capivasertib] + Cn1cnc2c(F)c(Nc3ccc(Br)cc3Cl)c(C(=O)NOCCO)cc21 [Selumetinib] (first compound max 10 µM, 7x7, partner max 10 µM)	-0.0017	-0.0255	-0.0041	–	0.0855	-0.0332	0.0843	0.0099	0.0512	-0.0326	-0.0307	-0.0554	0.0245	-0.0316	0.496	0.592
COc1cc2ncnc(Nc3ccc(F)c(Cl)c3)c2cc1OCCCN1CCOCC1 [Gefitinib] + CC(C)n1c(=O)n(C)c2cnc3cc(F)c(-c4ccc(OCCCN5CCCCC5)nc4)cc3c21 [AZD1390] (first compound max 10 µM, 7x7, partner max 0.3 µM)	-0.0458	-0.0252	-0.0513	–	-0.0426	-0.0395	-0.0319	-0.0347	-0.0453	-0.0752	-0.0806	-0.0215	-0.046	-0.0717	0.188	0.296
CS(=O)(=O)CCNCc1ccc(-c2ccc3ncnc(Nc4ccc(OCc5cccc(F)c5)c(Cl)c4)c3c2)o1 [Lapatinib] + C[C@@H](Oc1cc(-c2cnn(C3CCNCC3)c2)cnc1N)c1c(Cl)ccc(F)c1Cl [Crizotinib] (first compound max 10 µM, 7x7, partner max 10 µM)	-0.0302	-0.0241	-0.081	–	-0.0496	-0.0386	-0.0392	-0.0755	-0.0748	0.0063	0.002	-0.0834	-0.0828	-0.0304	0.957	0.696
CC(=O)c1c(C)c2cnc(Nc3ccc(N4CCNCC4)cn3)nc2n(C2CCCC2)c1=O [Palbociclib] + CC1(C)CCC(CN2CCN(c3ccc(C(=O)NS(=O)(=O)c4ccc(NCC5CCOCC5)c([N+](=O)[O-])c4)c(Oc4cnc5[nH]ccc5c4)c3)CC2)=C(c2ccc(Cl)cc2)C1 [Venetoclax] (first compound max 10 µM, 7x7, partner max 1 µM)	0.0594	0.0129	-0.13	–	0.0132	-0.0334	-0.0343	-0.0032	-0.0285	-0.0115	0.0013	-0.089	-0.0713	-0.0496	0.534	0.175
CC(=O)c1c(C)c2cnc(Nc3ccc(N4CCNCC4)cn3)nc2n(C2CCCC2)c1=O [Palbociclib] + Cc1c2c(nn1C)CSCc1cc(n(C)n1)CSc1cc(c3ccccc3c1)OCCCc1c(C(=O)O)n(C)c3c-2c(Cl)ccc13 [AZD5991] (first compound max 10 µM, 7x7, partner max 1 µM)	-0.05	0.0039	0.0006	–	0.0099	-0.103	0.0096	-0.0915	-0.0075	-0.119	-0.0371	0.0058	-0.0144	-0.0538	0.547	0.235
CC(=O)c1c(C)c2cnc(Nc3ccc(N4CCNCC4)cn3)nc2n(C2CCCC2)c1=O [Palbociclib] + Cn1cnc2c(F)c(Nc3ccc(Br)cc3Cl)c(C(=O)NOCCO)cc21 [Selumetinib] (first compound max 10 µM, 7x7, partner max 10 µM)	-0.0009	-0.0158	-0.0471	–	0.0045	-0.0013	-0.033	-0.014	0.0697	-0.0289	0.0308	-0.0078	0.001	0.0004	0.729	0.4
CCc1c2c(nc3ccc(O)cc13)-c1cc3c(c(=O)n1C2)COC(=O)[C@]3(O)CC [SN-38] + O=C(c1cc(Cc2n[nH]c(=O)c3ccccc23)ccc1F)N1CCN(C(=O)C2CC2)CC1 [Olaparib] (first compound max 0.3 µM, 7x7, partner max 10 µM)	–	0.0213	-0.0409	0.0027	0.0174	0.0115	0.057	0.0544	0.104	–	0.0958	0.0993	–	–	–	–
C[C@@H](c1ccc2nccn2c1)n1nnc2ncc(-c3cnn(C)c3)nc21 [Savolitinib] + CC1(C)CCC(CN2CCN(c3ccc(C(=O)NS(=O)(=O)c4ccc(NCC5CCOCC5)c([N+](=O)[O-])c4)c(Oc4cnc5[nH]ccc5c4)c3)CC2)=C(c2ccc(Cl)cc2)C1 [Venetoclax] (first compound max 1 µM, 7x7, partner max 1 µM)	-0.0736	-0.0281	-0.0346	–	-0.0144	-0.042	-0.0234	-0.0561	-0.0357	-0.0484	-0.0399	-0.0488	-0.0506	-0.0389	0.108	0.2
C[C@@H](c1ccc2nccn2c1)n1nnc2ncc(-c3cnn(C)c3)nc21 [Savolitinib] + Cc1c2c(nn1C)CSCc1cc(n(C)n1)CSc1cc(c3ccccc3c1)OCCCc1c(C(=O)O)n(C)c3c-2c(Cl)ccc13 [AZD5991] (first compound max 1 µM, 7x7, partner max 1 µM)	-0.0465	-0.0595	-0.0156	–	0.0649	-0.0242	0.0093	0.0497	-0.0593	-0.0499	0.0076	-0.0305	0.003	-0.056	0.193	0.204
Cn1cnc2c(F)c(Nc3ccc(Br)cc3Cl)c(C(=O)NOCCO)cc21 [Selumetinib] + C=CCn1c(=O)c2cnc(Nc3ccc(N4CCN(C)CC4)cc3)nc2n1-c1cccc(C(C)(C)O)n1 [AZD1775] (first compound max 10 µM, partner max 1 µM)	-0.0289	-0.0632	0.0002	–	-0.0295	-0.079	-0.0042	-0.0509	-0.0286	-0.0509	-0.0797	-0.0258	-0.03	-0.015	0.826	0.47
Cn1cnc2c(F)c(Nc3ccc(Br)cc3Cl)c(C(=O)NOCCO)cc21 [Selumetinib] + CC(C)n1c(=O)n(C)c2cnc3cc(F)c(-c4ccc(OCCCN5CCCCC5)nc4)cc3c21 [AZD1390] (first compound max 10 µM, 7x7, partner max 0.3 µM)	-0.0335	-0.0304	-0.03	–	-0.0123	-0.0452	-0.0066	-0.0617	-0.0129	-0.0325	-0.0503	-0.0174	0.0473	-0.0109	0.466	0.431
Cn1cnc2c(F)c(Nc3ccc(Br)cc3Cl)c(C(=O)NOCCO)cc21 [Selumetinib] + CCN(CCO)CCCOc1ccc2c(Nc3cc(CC(=O)Nc4cccc(F)c4)[nH]n3)ncnc2c1 [AZD2811] (first compound max 10 µM, 7x7, partner max 1 µM)	-0.0248	-0.0426	-0.0336	–	-0.0022	-0.0309	0.0021	0.0333	0.0289	-0.0285	-0.0091	0.0022	-0.0495	0.0176	0.874	0.405
Cn1cnc2c(F)c(Nc3ccc(Br)cc3Cl)c(C(=O)NOCCO)cc21 [Selumetinib] + C[C@@H]1COCCN1C2=NC(=NC(=C2)C3(CC3)[S@](=N)(=O)C)C4=C5C=CNC5=NC=C4 [AZD6738] (first compound max 10 µM, 7x7, partner max 10 µM)	0.0021	-0.028	-0.064	–	-0.0564	-0.0558	-0.0511	-0.0299	-0.0093	-0.0365	-0.0067	-0.0114	-0.0582	0.0621	0.865	0.487
